Results: ChEMBL document CHEMBL6153094, “Rationally designed highly amphipathic antimicrobial peptides demonstrating superior bacterial selectivity relative to the corresponding α-helix peptide” (Eur J Med Chem, 2025)
Calls of active or inactive are those of the source. The calls are words filed in the database; no cut-off is given here.

Tests used:
[1] = test system: Staphylococcus aureus; experiment: Antibiofilm activity in Staphylococcus aureus ATCC 25923 assessed as inhibition of biofilm formation at 1 times of MIC incubated for 24 hrs by crystal violet staining based analysis relative to control; type: functional
[2] = test system: Klebsiella pneumoniae; experiment: Antibacterial activity against Klebsiella pneumoniae ATCC 700603 infected in male Balb/c mouse model of pneumonia assessed as decrease in decrease in IL-1beta level in lung at 2.5 to 10 mg/kg, ip administered at 4 and 12 hrs post-infected and measured after 24 hrs by ELISA; type: functional, organism-based; settings: dose 2.5-10 mg/kg, time 20.0 hrs
[3] = test system: Pseudomonas aeruginosa; experiment: Induction of morphological changes in Pseudomonas aeruginosa ATCC 27853 assessed as blister formation at 2 times of MIC incubated for 30 to 120 mins by SEM analysis; type: functional, organism-based; settings: time 30-120 min
[4] = test system: Cell membrane; experiment: Disruption of membrane integrity in Staphylococcus aureus ATCC 25923 at 2 times of MIC incubated for 30 to 120 mins by SEM analysis; type: subcellular; settings: time 30-120 min
[5] = test system: Pseudomonas aeruginosa; experiment: Antibacterial activity against Pseudomonas aeruginosa ATCC 27853 incubated for 18 hrs in presence of MgCl2 by Mueller-Hinton broth based assay; type: functional, organism-based
[6] = test system: Staphylococcus aureus; experiment: Resistance fold, ratio of MIC for Staphylococcus aureus ATCC 25923 measured after 20 passages in presence of gentamicin to MIC for Staphylococcus aureus ATCC 25923 measured immediately in presence of gentamicin; type: functional
[7] = Hemolytic activity in mouse red blood cells assessed as hemolysis at 256 uM incubated for 1 hrs by absorbance based assay relative to control; type: toxicity, cell-based, Erythrocyte; settings: read-out: Activity
[8] = test system: Pseudomonas aeruginosa; experiment: Bactericidal activity against Pseudomonas aeruginosa ATCC 27853 assessed as bacterial eradication at 2 times of MIC measured within 30 mins by time-kill kinetics assay; type: functional, organism-based
[9] = test system: Pseudomonas aeruginosa; experiment: Antibacterial activity against Pseudomonas aeruginosa ATCC 27853 assessed as fold change in MIC incubated for 18 hrs in presence of NaCl by Mueller-Hinton broth based assay; type: functional
[10] = test system: Pseudomonas aeruginosa; experiment: Antibacterial activity against Pseudomonas aeruginosa ATCC 27853 assessed as fold change in MIC incubated for 18 hrs in presence of 5% serum by broth microdilution method; type: functional
[11] = test system: Staphylococcus aureus; experiment: Antibacterial activity against Staphylococcus aureus ATCC 25923 assessed as inhibition of bacterial growth at 2 times of MIC incubated for 18 hrs in presence of <2 microg/ml of trypsin by absorbance based assay; type: functional, organism-based
[12] = test system: Staphylococcus aureus; experiment: Antibacterial activity against Staphylococcus aureus ATCC 25923 assessed as fold change in MIC incubated for 18 hrs in presence of NaCl by Mueller-Hinton broth based assay; type: functional
[13] = test system: Pseudomonas aeruginosa; experiment: Antimicrobial activity against multi-drug resistant Pseudomonas aeruginosa clinical isolate 124 assessed as concentration required to eliminate 90% bacteria incubated for 18 hrs by broth-microdilution method; type: functional
[14] = test system: Staphylococcus aureus; experiment: Antibiofilm activity in Staphylococcus aureus ATCC 25923 assessed as inhibition of biofilm formation at 1/2 times of MIC incubated for 24 hrs by crystal violet staining based analysis relative to control; type: functional
[15] = test system: Pseudomonas aeruginosa; experiment: Bactericidal activity against Pseudomonas aeruginosa ATCC 27853 assessed as bacterial eradication at 4 times of MIC measured within 30 mins by time-kill kinetics assay; type: functional, organism-based
[16] = test system: Pseudomonas aeruginosa; experiment: Induction of morphological changes in Pseudomonas aeruginosa ATCC 27853 assessed as cellular fragmentation at 2 times of MIC incubated for 30 to 120 mins by SEM analysis; type: functional, organism-based; settings: time 30-120 min
[17] = test system: Staphylococcus aureus; experiment: Antimicrobial activity against methicillin-drug resistant Staphylococcus aureus clinical isolate 74 assessed as concentration required to eliminate 90% bacteria incubated for 18 hrs by broth-microdilution method; type: functional
[18] = test system: Klebsiella pneumoniae; experiment: Antibacterial activity against Klebsiella pneumoniae ATCC 700603 infected in male Balb/c mouse model of pneumonia assessed as increase in alveoli expansion in lung at 2.5 mg/kg, ip administered at 4 and 12 hrs post-infected and measured after 24 hrs by H and E staining based analysis; type: functional, organism-based; settings: time 20.0 hrs
[19] = test system: Bacillus subtilis; experiment: Antimicrobial activity against Bacillus subtilis ATCC 23857 assessed as inhibition of visible bacterial growth incubated for 18 hrs by broth microdilution method; type: functional
[20] = test system: Enterococcus faecalis; experiment: Antimicrobial activity against Enterococcus faecalis ATCC 29212 assessed as inhibition of visible bacterial growth incubated for 18 hrs by broth-dilution method; type: functional
[21] = test system: Escherichia coli; experiment: Antimicrobial activity against multi-drug resistant Escherichia coli clinical isolate 780 assessed as concentration required to eliminate 90% bacteria incubated for 18 hrs by broth-microdilution method; type: functional
[22] = test system: Staphylococcus aureus; experiment: (§1) Antibacterial activity against methicillin-resistant Staphylococcus aureus ATCC 33591 infected in male Balb/c mouse model of full thickness skin wound assessed as reduction in bacterial load in skin at 1 mg/ml pre-infected with bacteria for 1 hrs followed by compound administration at 1,24,48 and 72 hrs post infection and measured 60 hrs post infection by agar plate method; type: functional, organism-based; settings: time 59.0 hrs
[23] = test system: Cell membrane; experiment: Disruption of outer membrane integrity in Pseudomonas aeruginosa ATCC 27853 assessed as increase in fluorescence intensity at 4 times of MIC measured for 12 mins by NPN uptake assay; type: subcellular
[24] = test system: Staphylococcus aureus; experiment: Antimicrobial activity against methicillin-drug resistant Staphylococcus aureus ATCC 33591 assessed as concentration required to eliminate 90% bacteria incubated for 18 hrs by broth-microdilution method; type: functional
[25] = test system: Staphylococcus aureus; experiment: Antibacterial activity against Staphylococcus aureus ATCC 25923 incubated for 18 hrs in presence of MgCl2 by Mueller-Hinton broth based assay; type: functional, organism-based
[26] = test system: Pseudomonas aeruginosa; experiment: Bactericidal activity against Pseudomonas aeruginosa ATCC 27853 assessed as bacterial killing measured upto 360 mins by time-kill kinetics assay; type: functional, organism-based
[27] = test system: Pseudomonas aeruginosa; experiment: Bactericidal activity against Pseudomonas aeruginosa ATCC 27853 assessed as bacterial killing at 1 to 4 times of MIC by time-kill kinetics assay; type: functional, organism-based; settings: time <= 360.0 min
[28] = test system: Pseudomonas aeruginosa; experiment: Antimicrobial activity against multi-drug resistant Pseudomonas aeruginosa clinical isolate 119 assessed as concentration required to eliminate 90% bacteria incubated for 18 hrs by broth-microdilution method; type: functional
[29] = test system: Staphylococcus aureus; experiment: Antibacterial activity against Staphylococcus aureus ATCC 25923 incubated for 18 hrs in presence of ZnCl2 by Mueller-Hinton broth based assay; type: functional, organism-based
[30] = test system: Pseudomonas aeruginosa; experiment: Antibacterial activity against Pseudomonas aeruginosa ATCC 27853 incubated for 18 hrs in presence of FeCl3 by Mueller-Hinton broth based assay; type: functional, organism-based
[31] = test system: Pseudomonas aeruginosa; experiment: Induction of morphological changes in Pseudomonas aeruginosa ATCC 27853 assessed as membrane disruption at 2 times of MIC incubated for 30 to 120 mins by SEM analysis; type: functional, organism-based; settings: time 30-120 min
[32] = test system: Staphylococcus aureus; experiment: Antibacterial activity against Staphylococcus aureus ATCC 25923 assessed as inhibition of bacterial growth at 2 times of MIC incubated for 18 hrs in presence of <2 microg/ml of chymotrypsin by absorbance based assay; type: functional, organism-based
[33] = test system: Staphylococcus aureus; experiment: as §1, with “decrease” for “reduction”, “cell necrosis” for “bacterial load”, “1,12” for “1,24,48”, “36” for “72”, “after 10 days” for “60 hrs post infection”, “H and E staining based analysis” for “agar plate method”; type: functional, organism-based; settings: time 10.0 day
[34] = test system: DNA; experiment: Binding affinity to Pseudomonas aeruginosa ATCC 27853 DNA at 8 times of MIC measured after 30 mins by agarose gel electrophoresis; type: nucleic-acid assay
[35] = test system: Staphylococcus aureus; experiment: Antibacterial activity against methicillin-resistant Staphylococcus aureus ATCC 33591 infected in male Balb/c mouse model of full thickness skin wound assessed as reduction in bacteria in skin wound at 1 mg/ml pre-infected with bacteria for 1 hrs followed by compound administration at 1,24,48 and 72 hrs post infection and measured after 10 days by photographic analysis; type: functional, organism-based; settings: time 10.0 day

## H-RRWFRRWRRWFR-NH2
[1]
  inhibition (INH): ~50%
[2]
  Activity: Active
[3]
  Activity: Active
[4]
  Activity: Active
[5]
  Activity: Active
[6]
  fold change (FC): <=2
[7]
  hemolysis at 1 h, 256 µM: < 10%
[8]
  Activity: Active
[9]
  fold change (FC): 2
[10]
  fold change (FC): 64
[11]
  Activity: Active
[12]
  fold change (FC): 2
[13]
  EC90: 0.78 µM
[14]
  inhibition (INH): 35%
[15]
  Activity: Active
[16]
  Activity: Active
[17]
  EC90: 2.43 µM
[18]
  Activity: Active
[19]
  MIC: 1 µM
[20]
  MIC: 8 µM
[21]
  EC90: 5.08 µM
[22]
  Activity: Active
[23]
  Activity: Active
[24]
  EC90: 2.25 µM
[25]
  Activity: Active
[26]
  Activity: Dose-dependent-effect
[27]
  Activity: Time-dependent-effect
[28]
  EC90: 0.566 µM
[29]
  Activity: Active
[30]
  Activity: Active
[31]
  Activity: Active
[32]
  Activity: Active
[33]
  Activity: Active
[34]
  Activity: Active
[35]
  Activity: Active; Obvious Facilitation Of Wound Healing Not Observed
